According to PubChem BioAssay (NCI):
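In this assay, cells in 96-well plates receive the compound at five concentrations for 48 hours. Endpoints are linearly interpolated between the surrounding concentrations. At the TGI there is no net growth.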

How the values were obtained:
Experiment in all cases: inhibition of tumour cell growth, NCI panel, 48 h
[1] = test system: 786-0 renal
[2] = test system: A498 renal
[3] = test system: A549 NSCLC
[4] = test system: ACHN renal
[5] = test system: BT-549 breast
[6] = test system: CAKI-1 renal
[7] = test system: COLO 205 colon
[8] = test system: DU-145 prostate
[9] = test system: EKVX NSCLC
[10] = test system: HCC-2998 colon
[11] = test system: HCT-116 colon
[12] = test system: HCT-15 colon
[13] = test system: HL-60(TB) leukemia
[14] = test system: HOP-62 NSCLC
[15] = test system: HOP-92 NSCLC
[16] = test system: HS 578T breast
[17] = test system: HT29 colon
[18] = test system: IGROV1 ovarian
[19] = test system: K-562 leukemia
[20] = test system: KM12 colon
[21] = test system: LOX IMVI melanoma
[22] = test system: MALME-3M melanoma
[23] = test system: MCF7 breast
[24] = test system: MDA-MB-231 breast
[25] = test system: MDA-MB-435
[26] = test system: MDA-N
[27] = test system: MOLT-4 leukemia
[28] = test system: NCI-H226 lung
[29] = test system: NCI-H23 lung
[30] = test system: NCI-H460 lung
[31] = test system: NCI-H522 lung
[32] = test system: NCI/ADR-RES ovarian
[33] = test system: OVCAR-3 ovarian
[34] = test system: OVCAR-5 ovarian
[35] = test system: OVCAR-8 ovarian
[36] = test system: PC-3 prostate
[37] = test system: RPMI-8226 leukemia
[38] = test system: RXF 393 renal
[39] = test system: SF-268 CNS
[40] = test system: SF-295 CNS
[41] = test system: SF-539 CNS
[42] = test system: SK-MEL-28 melanoma
[43] = test system: SK-MEL-5 melanoma
[44] = test system: SN12C renal
[45] = test system: SNB-19 CNS
[46] = test system: SNB-75 CNS
[47] = test system: SR leukemia
[48] = test system: SW-620 colon
[49] = test system: TK-10 renal
[50] = test system: U251 CNS
[51] = test system: UACC-257 melanoma
[52] = test system: UO-31 renal

Q: With `O=C(NCCN1CCOCC1)c1cn2c(ccc3sc4ccccc4c(=O)c32)n1` as the molecule, how does the TGI [1] read?
A: Its TGI is 40 µM.

Q: And the TGI [2]?
A: Its TGI is greater than 100 µM.

Q: And the TGI [3]?
A: Its TGI is greater than 100 µM.

Q: What about the TGI [4] of the same molecule?
A: Its TGI is greater than 100 µM.

Q: What about the TGI [5] of the same molecule?
A: The TGI was greater than 100 µM.

Q: And the TGI [6]?
A: The TGI was greater than 100 µM.

Q: What about the TGI [7] of the same molecule?
A: The TGI was greater than 100 µM.

Q: And the TGI [8]?
A: Its TGI is greater than 100 µM.

Q: And the TGI [9]?
A: The TGI was greater than 100 µM.

Q: What about the TGI [10] of the same molecule?
A: The TGI was 54.1 µM.

Q: And the TGI [11]?
A: The TGI was 29 µM.

Q: What about the TGI [12] of the same molecule?
A: Its TGI is greater than 100 µM.

Q: What about the TGI [13] of the same molecule?
A: Its TGI is 36.3 µM.

Q: What about the TGI [14] of the same molecule?
A: The TGI was greater than 100 µM.

Q: What about the TGI [15] of the same molecule?
A: The TGI was greater than 100 µM.

Q: What about the TGI [16] of the same molecule?
A: Its TGI is 47.3 µM.

Q: And the TGI [17]?
A: The TGI was 25.6 µM.

Q: What about the TGI [18] of the same molecule?
A: Its TGI is greater than 100 µM.

Q: What about the TGI [19] of the same molecule?
A: The TGI was greater than 100 µM.

Q: What about the TGI [20] of the same molecule?
A: Its TGI is greater than 100 µM.

Q: What about the TGI [21] of the same molecule?
A: The TGI was 47.4 µM.

Q: What about the TGI [22] of the same molecule?
A: Its TGI is greater than 100 µM.

Q: What about the TGI [23] of the same molecule?
A: The TGI was greater than 100 µM.

Q: What about the TGI [24] of the same molecule?
A: The TGI was greater than 100 µM.

Q: What about the TGI [25] of the same molecule?
A: Its TGI is greater than 100 µM.

Q: What about the TGI [26] of the same molecule?
A: The TGI was greater than 100 µM.

Q: What about the TGI [27] of the same molecule?
A: Its TGI is greater than 100 µM.

Q: And the TGI [28]?
A: Its TGI is greater than 100 µM.

Q: What about the TGI [29] of the same molecule?
A: The TGI was greater than 100 µM.

Q: What about the TGI [30] of the same molecule?
A: The TGI was 18.3 µM.

Q: What about the TGI [31] of the same molecule?
A: The TGI was greater than 100 µM.

Q: And the TGI [32]?
A: The TGI was greater than 100 µM.

Q: And the TGI [33]?
A: Its TGI is greater than 100 µM.

Q: What about the TGI [34] of the same molecule?
A: Its TGI is greater than 100 µM.

Q: What about the TGI [35] of the same molecule?
A: The TGI was greater than 100 µM.

Q: What about the TGI [36] of the same molecule?
A: Its TGI is greater than 100 µM.

Q: What about the TGI [37] of the same molecule?
A: Its TGI is 41.2 µM.

Q: What about the TGI [38] of the same molecule?
A: The TGI was greater than 100 µM.

Q: What about the TGI [39] of the same molecule?
A: Its TGI is greater than 100 µM.

Q: And the TGI [40]?
A: The TGI was 44.9 µM.

Q: And the TGI [41]?
A: The TGI was greater than 100 µM.

Q: And the TGI [42]?
A: Its TGI is greater than 100 µM.

Q: And the TGI [43]?
A: The TGI was 60.6 µM.

Q: What about the TGI [44] of the same molecule?
A: The TGI was greater than 100 µM.

Q: What about the TGI [45] of the same molecule?
A: Its TGI is greater than 100 µM.

Q: And the TGI [46]?
A: Its TGI is 59.4 µM.

Q: And the TGI [47]?
A: Its TGI is greater than 100 µM.

Q: What about the TGI [48] of the same molecule?
A: The TGI was 25.3 µM.

Q: What about the TGI [49] of the same molecule?
A: Its TGI is greater than 100 µM.

Q: And the TGI [50]?
A: The TGI was 21.6 µM.

Q: And the TGI [51]?
A: Its TGI is greater than 100 µM.

Q: And the TGI [52]?
A: Its TGI is greater than 100 µM.
